Data: PMC10353390, “Biological and Structural Analyses of New Potent Allosteric Inhibitors of HIV-1 Integrase” (Antimicrobial Agents and Chemotherapy, 2023)
Read-outs that look alike come from different tables or passages of the source.

Experiments:
[1] = Cytotoxicity assay in MT4 cells; assay type: cell-based; settings: human, MT4 cells (proliferating human T-cell line), CellTiter-Glo
Excerpt: Growth inhibition was monitored in a proliferating human T-cell line (MT4) with different concentrations of compounds, using the CellTiter-Glo luminescent reagent (Promega), as previously described ([12]).

[2] = test system: HIV-1 strains resistant to INSTIs, NRTIs, NNRTIs or PIs; assay type: cell-based
Summary of the method: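 Cell viability (CellTiter-Glo luminescence) served as read-out in MT4 cells at 10^6/mL, infected 2 h at MOI 0.001 in presence of graded compound concentrations. Viruses: resistance-mutation recombinants in NL4-3 backbone plus resistant clinical isolates.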

[3] = molecular target: CCD of HIV-1 IN and IBD of LEDGF/p75 (Human immunodeficiency virus type 1 group M subtype B, UniProt P12497); experiment: biochemical
Procedure: (§2) The INLAIs were tested for the ability to inhibit the HIV-1 IN-LEDGF/p75 interaction in a homogeneous time-resolved fluorescence (HTRF) assay. Our assays used either full-length IN and LEDGF/p75 proteins or their respective minimally sufficient interaction domains: the CCD of HIV-1 IN and the IBD of LEDGF/p75 (Table 1).
(§3) HTRF-based CCD-IBD interaction, IN-LEDGF/p75 interaction and IN multimerization assays were performed as described previously ([12]).

[4] = molecular target: T1, HIV-1 IN (Human immunodeficiency virus type 1 group M subtype B, UniProt P12497); experiment: HTRF IN multimerization assay; assay type: biochemical; settings: mean ± SD
T1 construct: made in house
Excerpt: A key property of INLAIs is the ability to promote HIV-1 IN homo-multimerization ([39][–][42]). […] The maximal signal (plateau) in our IN aggregation assay corresponds to the highest HTRF signal increase under saturating INLAI concentration, relative to baseline level. Thus, MUT916, MUT884, MUT871, and MUT872 increased HIV-1 IN aggregation 3.7 to 4.4-fold, while BDM-2, BI-224436, and S-I-82 did so 5 to 6-fold (Table 1).

[5] = test system: lab-adapted and clinical HIV-1 isolates; experiment: Infection assays in primary T CD4+ lymphocytes; assay type: cell-based; settings: Human immunodeficiency virus 1, Lymphocyte
[6] = test system: NL4-3 HIV-1 with INLAI-selected IN single point mutations; assay type: cell-based
[7] = test system: VSV-G-pseudotyped NL4-3Δenv-luc; experiment: microbe, parasite or virus in culture; assay type: cell-based, HIV-1
[8] = test system: primary HIV-1 isolates with polymorphisms at IN positions 124 and 125; experiment: Multiple-round infection of MT4 cells with primary HIV-1 isolates polymorphic at IN positions 124 and 125; assay type: cell-based; settings: primary isolate
Procedure: Next, we evaluated the potency of the BDM-2 series of INLAIs against several primary HIV-1 isolates with polymorphisms at IN positions 124 and 125.
(§1) MT4 cells growing exponentially at the density of 10^6/mL were infected with HIV-1 strain NL4-3 at a multiplicity of infection (MOI) of 0.001 for 2 h in the presence of different concentrations of compounds, and the CellTiter-Glo luminescent reagent (Promega) was used to quantify cell viability as described previously ([12]).

[9] = molecular target: HIV-1 IN-LEDGF/p75 interaction (Human immunodeficiency virus type 1 group M subtype B, UniProt P12497); experiment: biochemical
Procedure: as §2, §3

[10] = test system: NL4-3 HIV-1 strain; experiment: Multiple-round infection assay in MT4 cells, NL4-3; assay type: cell-based; settings: MT4 cells
[11] = test system: HXB2 HIV-1 strain; experiment: Multiple-round infection assay in MT4 cells, HXB2; assay type: cell-based; settings: Human immunodeficiency virus 1, HXB2; multiple-round infection, MT4 cells; mean ± SD, n > 5; read-out: EC50 HXB2
Summary of the method: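 Antiviral read-out was CellTiter-Glo luminescent viability of exponentially growing MT4 cells (10^6/mL). Cells were exposed to HIV-1 for 2 h at an MOI of 0.001 while compound was present at varying concentrations.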

[12] = test system: recombinant NL4-3 viruses with polymorphisms at IN positions 124 and 125; experiment: Multiple-round infection of MT4 cells with recombinant NL4-3 viruses polymorphic at IN positions 124 and 125; assay type: cell-based, HIV-1
Excerpt: Located on the HIV-1 IN CCD dimerization interface, the principal INLAI binding pocket overlaps with a hot spot of amino acid sequence polymorphism involving IN residues 124 and 125 ([16]). To test if the new INLAIs maintained antiviral activity against major polymorphisms, we introduced all major combinations of residues found in circulating HIV-1 strains at positions 124 and 125 into NL4-3 HIV-1 molecular clone. In total, we evaluated 15 such combinations that collectively covered 98% of all HIV-1 clade polymorphisms involving these positions ([48]). To gauge effects on the antiviral activity, we calculated the EC50 fold change (FC) relative to wild type NL4-3 HIV-1 strain that features Thr124 and Thr125 (TT; specific polymorphisms are referred to by a single letter amino acid code).
as §1

[13] = INSTI-resistant, NL4-3 background

## Cc1ccc(C2CC2)c(-c2ccc3c(c2C)CCCO3)c1[C@H](OC(C)(C)C)C(=O)O [MUT871]
[1]
  CC50: 46000 ± 11000 nM
[2]; [13]
  Fold change in EC50 relative to NL4-3, E92Q: 1
  Fold change in EC50 relative to NL4-3, G140S: 1
  Fold change in EC50 relative to NL4-3, G140S/Q148H: 1
  Fold change in EC50 relative to NL4-3, N155H: 1
  Fold change in EC50 relative to NL4-3, Q148H: 1
  Fold change in EC50 relative to NL4-3, Y143R: 1
[2]; NRTI-resistant clone
  Fold change in EC50 relative to NL4-3, NLAY351717: 1
[2]; NRTI/NNRTI-resistant clone
  Fold change in EC50 relative to NL4-3, NLAY351753: 1
[2]; NRTI/NNRTIs group, NL4-3 background
  Fold change in EC50 relative to NL4-3, K103N/Y181C: 1
[2]; PI-resistant virus
  Fold change in EC50 relative to NL4-3, ARP-4595: 1
  Fold change in EC50 relative to NL4-3, ARP-4596: 1
  Fold change in EC50 relative to NL4-3, ARP-11801: 1
  Fold change in EC50 relative to NL4-3, ARP-11803: 1
  Fold change in EC50 relative to NL4-3, ARP-11807: 1
  Fold change in EC50 relative to NL4-3, ARP-11808: 1
[3]
  IC50: 32 ± 14 nM
[4]; concentration for 50% maximum activation of multimerization
  AC50: 31 ± 20 nM
[4]; maximum multimerization reached versus baseline
  IN multimerization Plateau: 440 ± 53%
[5]; read-out: EC50 33913N (B)
  EC50: 1.5 ± 0.6 nM
[5]; read-out: EC50 HXB2 (B)
  EC50: 1.8 ± 0.3 nM
[5]; read-out: EC50 KER2008 (A)
  EC50: 6.4 ± 1.3 nM
[5]; read-out: EC50 NL4-3 (B)
  EC50: 2.8 ± 0.5 nM
[5]; read-out: EC50 NP1525 (CRF01_AE)
  EC50: 3.5 ± 0.6 nM
[5]; read-out: EC50 NP1538 (B)
  EC50: 4 ± 2.3 nM
[6]
  EC50 fold change compared to wild type NL4-3, A128T: 2
  EC50 fold change compared to wild type NL4-3, H171Q: 6
  EC50 fold change compared to wild type NL4-3, N222K: 3
  EC50 fold change compared to wild type NL4-3, T174I: 323
  EC50 fold change compared to wild type NL4-3, Y99H: 4
[7]
  EC50 ratio (single/multiple-round infection): 203
[7]; Human immunodeficiency virus 1, NL43, MT4, read-out: EC50 in single-round infection
  EC50: 630 ± 10 nM
[8]; IN 124/125 AA
  Fold change in EC50 relative to parental NL4-3, CAM2BBY (CRF02): 2
  Fold change in EC50 relative to parental NL4-3, E0836M4 (D): 2
  Fold change in EC50 relative to parental NL4-3, KER2008 (A): 1
  Fold change in EC50 relative to parental NL4-3, NP1525 (CRF01): 1
  Fold change in EC50 relative to parental NL4-3, NP1695 (CRF02): 3
  Fold change in EC50 relative to parental NL4-3, TZA125 (C): 1
[8]; IN 124/125 GA
  Fold change in EC50 relative to parental NL4-3, KSM4030 (A): 2
  Fold change in EC50 relative to parental NL4-3, vGA (C): 5
[8]; IN 124/125 NA
  Fold change in EC50 relative to parental NL4-3, 99ET14 (C): 2
  Fold change in EC50 relative to parental NL4-3, NP1538 (B): 2
  Fold change in EC50 relative to parental NL4-3, vNA_1 (B): 3
  Fold change in EC50 relative to parental NL4-3, vNA_2 (CRF02): 3
[8]; IN 124/125 NV
  Fold change in EC50 relative to parental NL4-3, vNV (B): 3
[8]; IN 124/125 SA
  Fold change in EC50 relative to parental NL4-3, vSA_1 (B): 4
  Fold change in EC50 relative to parental NL4-3, vSA_2 (CRF02): 3
[8]; IN 124/125 TA
  Fold change in EC50 relative to parental NL4-3, vTA_1 (B): 2
  Fold change in EC50 relative to parental NL4-3, vTA_2 (CRF02): 2
[9]
  IC50: 14 ± 5 nM
[10]; Human immunodeficiency virus 1, NL43, multiple-round infection, from dose response curves, read-out: EC90 NL4-3
  EC90: 4.6 ± 1.6 nM
[10]; Human immunodeficiency virus 1, NL43, multiple-round infection, mean ± SD, n > 5, read-out: EC50 NL4-3
  EC50: 3.1 ± 1 nM
[10]
  Selectivity index CC50/EC50 NL4-3: 14,838
[11]
  EC50: 1.4 ± 0.3 nM
[12]; recombinant NL4-3, IN 124/125 AA
  Fold change in EC50 relative to parental NL4-3, AA: 1
[12]; recombinant NL4-3, IN 124/125 AM
  Fold change in EC50 relative to parental NL4-3, AM: 0.4
[12]; recombinant NL4-3, IN 124/125 AT
  Fold change in EC50 relative to parental NL4-3, AT: 1
[12]; recombinant NL4-3, IN 124/125 AV
  Fold change in EC50 relative to parental NL4-3, AV: 1
[12]; recombinant NL4-3, IN 124/125 GA
  Fold change in EC50 relative to parental NL4-3, GA: 3
[12]; recombinant NL4-3, IN 124/125 GT
  Fold change in EC50 relative to parental NL4-3, GT: 2
[12]; recombinant NL4-3, IN 124/125 NA
  Fold change in EC50 relative to parental NL4-3, NA: 2
[12]; recombinant NL4-3, IN 124/125 NT
  Fold change in EC50 relative to parental NL4-3, NT: 1
[12]; recombinant NL4-3, IN 124/125 NV
  Fold change in EC50 relative to parental NL4-3, NV: 1
[12]; recombinant NL4-3, IN 124/125 SA
  Fold change in EC50 relative to parental NL4-3, SA: 1
[12]; recombinant NL4-3, IN 124/125 ST
  Fold change in EC50 relative to parental NL4-3, ST: 1
[12]; recombinant NL4-3, IN 124/125 TA
  Fold change in EC50 relative to parental NL4-3, TA: 1
[12]; recombinant NL4-3, IN 124/125 TM
  Fold change in EC50 relative to parental NL4-3, TM: 0.3
[12]; recombinant NL4-3, IN 124/125 TV
  Fold change in EC50 relative to parental NL4-3, TV: 1
